Results reported in patent US5693756A, “Amiloride-sensitive sodium channel and method of identifying substances which stimulate or block salty taste perception” (The Johns Hopkins University, priority 1995, dated 1997).

Tests used:
[1] = molecular target: T1, αENACa (Rattus norvegicus, UniProt P37089); assay: Inhibition by amiloride of [3H]phenamil binding to membranes from HEK-293 cells transfected with αENACa; conditions: 50 nM [3H]phenamil
T1 construct: expressed in transfected cells
T1 sequence (P37089 with tags, fused parts or gaps limits assumed): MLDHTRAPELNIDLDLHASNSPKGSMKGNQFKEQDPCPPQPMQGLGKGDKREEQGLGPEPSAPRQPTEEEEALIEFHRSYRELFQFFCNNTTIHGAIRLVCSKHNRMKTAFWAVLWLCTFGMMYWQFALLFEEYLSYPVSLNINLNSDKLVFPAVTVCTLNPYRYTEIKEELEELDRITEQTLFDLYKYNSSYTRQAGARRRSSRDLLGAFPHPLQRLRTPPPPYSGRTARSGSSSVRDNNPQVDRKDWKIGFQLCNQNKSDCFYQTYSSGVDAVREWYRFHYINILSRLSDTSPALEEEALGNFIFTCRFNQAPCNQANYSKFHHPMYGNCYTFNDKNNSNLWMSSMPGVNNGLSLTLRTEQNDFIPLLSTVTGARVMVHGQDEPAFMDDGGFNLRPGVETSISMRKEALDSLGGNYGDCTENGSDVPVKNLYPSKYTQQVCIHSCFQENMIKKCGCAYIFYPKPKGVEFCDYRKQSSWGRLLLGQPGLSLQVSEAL
Method: (§1) Transfected HEK-293 cells were harvested in cold (4° C.) binding buffer containing 1 mM EDTA, 15 mM Tris-HCl (pH 7.7), 1 μM pepstain A, 0.1 μM aprotinin, 0.1 mM phenylmethylsulfonyl fluoride and 10 μM leupeptin. Cells were then homogenized, centrifuged and the pellet resuspended in the binding buffer at 1-2 mg/ml concentration. The reaction mixture (0.2 ml) containing [^3 H]phenamil ([…]) and 100 μg protein was incubated at 4° C. for 90 minutes and the reaction terminated by rapid filtration through Whatman GF/B glass fiber filters pretreated with 0.3% polyethyleneimine. Amiloride (Sigma) suspended in 50% dimethylformamide was used as a competitor in the binding assay. Proteins was assayed by a kit (Pierce) with bovine serum albumin as a standard.
(§2) Membrane protein (100 μg) was incubated with 50 nM [^3 H]phenamil in the absence or presence of increasing concentrations of amiloride. Three independent experiments were performed in duplicate. Results are presented of a typical experiment with values varying less than 20%.

[2] = molecular target: T2, αENAC (Rattus norvegicus, UniProt P37089); assay: Inhibition by amiloride of [3H]phenamil binding to membranes from HEK-293 cells transfected with native αENAC; conditions: 50 nM [3H]phenamil, 100 μg membrane protein, increasing concentrations of amiloride
T2 construct: alpha subunit transfected alone
T2 sequence (P37089 1-698): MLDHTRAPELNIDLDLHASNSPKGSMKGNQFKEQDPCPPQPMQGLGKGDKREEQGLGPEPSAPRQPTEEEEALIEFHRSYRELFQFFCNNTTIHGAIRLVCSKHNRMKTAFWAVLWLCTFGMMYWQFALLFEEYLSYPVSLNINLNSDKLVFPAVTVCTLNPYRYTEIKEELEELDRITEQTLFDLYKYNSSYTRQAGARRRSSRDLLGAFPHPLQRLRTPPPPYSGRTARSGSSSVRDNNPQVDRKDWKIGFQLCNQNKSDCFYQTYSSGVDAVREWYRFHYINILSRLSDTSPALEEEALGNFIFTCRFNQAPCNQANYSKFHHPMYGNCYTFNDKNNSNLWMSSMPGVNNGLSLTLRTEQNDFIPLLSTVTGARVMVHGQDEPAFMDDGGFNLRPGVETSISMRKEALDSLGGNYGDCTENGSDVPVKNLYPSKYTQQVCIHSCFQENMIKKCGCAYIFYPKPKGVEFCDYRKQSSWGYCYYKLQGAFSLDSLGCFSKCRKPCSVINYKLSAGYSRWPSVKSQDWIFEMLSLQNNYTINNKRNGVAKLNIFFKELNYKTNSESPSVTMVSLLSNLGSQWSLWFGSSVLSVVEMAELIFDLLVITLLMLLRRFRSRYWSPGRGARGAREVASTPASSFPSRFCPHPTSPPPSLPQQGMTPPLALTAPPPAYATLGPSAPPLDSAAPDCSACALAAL
Method: as §1, §2

[3] = molecular target: T1, αENACa; assay: [3H]phenamil binding to membranes from HEK-293 cells transfected with αENACa
Text: (§3) Amiloride sensitive sodium channels have been extensively characterized in intact tissues by the binding of radioactive ligands. […] To limit variations in expression of individual clones, a pool of stably expressed cells (about 30 clones) that were mixed and propagated 3-4 times were used for the binding assay.
(§4) The full length cDNA of αENAC obtained by screening a rat taste cDNA library as described above (also described by Li et al., 1994, Proc. Natl. Acad. Sci. USA, 91:1814-1818, the disclosure of which is incorporated herein by reference) was cut with Not I and Xho I and inserted into an expression vector pcDNA-III (Invitrogen). The PCR product of the alternatively spliced form αENACa was cut with Bcl I to replace the corresponding region of native αENAC in pcDNA III. Thus the native form (αENAC) and an alternatively spliced form (αENACa) of the alpha subunit of ENAC in the expression vector was constructed for stable expression in HEK-293 cells. DNA (10 μg) was then transfected into HEK-293 cells by the calcium phosphate technique. Stable expression clones of cells were selected by exposure for 4-6 weeks to a medium containing 500 μg/ml G418.
as §1
(§5) [^3 H]phenamil binding in HEK-293 cells transfected with native αENAC or alternatively spliced αENACa are compared in FIGS. 9A and 9B. […]

[4] = molecular target: T2, αENAC; assay: [3H]phenamil binding to membranes from HEK-293 cells transfected with native αENAC
Text: as §3, §4, §1, §5

Row | Compound | inhibition of [3H]phenamil binding ([1]; 100 μg membrane protein, increasing concentrations of amiloride, αENACa) | potency in competing for [3H]phenamil binding, αENACa transfected cells relative to native channel ([1]; αENACa versus native αENAC) | inhibition of [3H]phenamil binding [2] | specific [3H]phenamil binding, versus cells not transfected with the channel ([3]; HEK-293 cells transfected with αENACa, 50 nM [3H]phenamil, 1 mM amiloride) | Bmax ([3]; saturation analysis, membranes of HEK-293 cells transfected with αENACa) [pmol/mg protein] | Kd ([3]; saturation analysis, membranes of HEK-293 cells transfected with αENACa, 4° C., 90 minutes, read-out: apparent Kd) [nM] | levels of [3H]phenamil binding, versus cells transfected only with the expression vector ([4]; HEK-293 cells transfected with native αENAC, 50 nM [3H]phenamil, 1 mM amiloride) | Bmax ([4]; saturation analysis, membranes of HEK-293 cells transfected with αENAC) [pmol/mg protein] | Kd ([4]; saturation analysis, membranes of HEK-293 cells transfected with αENAC, 4° C., 90 minutes) [nM]
1 | N=C(N)NC(=O)c1nc(Cl)c(N)nc1N [amiloride, N-amidino-3,5-diamino-6-chloropyrazine carboxamide] | inhibited | about 10 times | inhibited | – | – | – | – | – | –
2 | NC(=Nc1ccccc1)NC(=O)c1nc(Cl)c(N)nc1N [[^3 H]phenamil, phenamil] | – | – | – | doubling | 28 | 260 | not significantly greater | 18 | 270
